This is an account of results in patent US9012433B2, “Substituted tetracycline compounds” (Paratek Pharmaceuticals, Inc., priority 2006, dated 2015).

≈ marks a conversion by molar mass, not a printed value. Like-named read-outs stand apart in the source and are kept apart here.

Series [1] deals with S. aureus RN450. Nature of the series: In vivo anti-bacterial activity, S. aureus model. Particulars: mice, 24 hours. The protocol: Groups of five mice were injected intraperitoneally with a lethal dose of S. aureus RN450 in a medium of mucin. Mice were evaluated at 24 hours to determine survival. […] In some instances, a dose response study was performed with the compound such that a PD50 (a dose of compound that protects 50% of the animals) could be calculated.

Another series can be described thus: in vitro. Type of series: cell-based. Here is the method:
Mammalian cell cytotoxicity was assessed to evaluate potential in vivo risks associated with the tetracycline compounds of the invention. A soluble, non-toxic redox dye (“Resazurin”; Alamar Blue) was used to assess a tetracycline compound's effect on cellular metabolism. At the onset of the experiment, cultures of mammalian COS-1 or CHO cells were washed, trypsinized, and harvested. […] On the next day, serial dilutions of test drug were prepared under sterile conditions and transferred to cell plates. Plates were then incubated under the above conditions for 24 hours. Following the incubation period, the media/drug was aspirated, and 50 μL of resazurin was added. Plates were then incubated under the above conditions for 2 hours and then in the dark at room temperature for an additional 30 minutes. Fluorescence measurements were taken (excitation 535 nm, emission 590 nm) and toxic effects in treated versus control cells were compared based on the degree of fluorescence in each well.

The next series deals with P. acnes ATCC 6919. Nature of the series: Antibacterial MIC, CLSI broth microdilution. Type of series: cell-based. To be noted: 35° C., 18-24 hours; for MIC: Cutibacterium acnes, ATCC6919. Here is the method: (§1) Grain (−) and gram (+) antibacterial minimum inhibitory concentration (MIC) values (μg/mL) were obtained using CLSI methodology for anti-bacterial susceptibility testing. On each day of testing, serial dilutions of compounds were prepared in microdilution plates using a Tecan robotic workstation. Mueller Hinton broth cultures of representative sensitive and resistant gram negative strains were grown or adjusted to match the turbidity of a 0.5 McFarland standard. 1:200 dilutions were made in an appropriate broth (cation supplemented Mueller Hinton broth) to allow a final inoculum of 1×10^5 cfu. Plates were incubated at 35° C. in ambient air for 18-24 hours, were read spectrophotometrically and checked manually for evidence of bacterial growth. The lowest dilution of compound that inhibited growth was recorded as the MIC. Lysed horse blood was used to supplement broth for testing S. pneumoniae. The MIC's for each compound were assessed against S. aureus, S. pneumoniae, P. acnes, E. coli and B. theta.
On the technique in general: Broth dilution looks for growth in wells or tubes with falling amounts of substance.

In series [2] the test system is B. thetaiotaomicron ATCC 29741. Description: Antibacterial MIC, CLSI broth microdilution. The class given is cell-based. Particulars: for MIC: Bacteroides thetaiotaomicron. The protocol: as §1
Series [3] deals with S. pneumoniae 157E - Strep. Description: Antibacterial MIC, CLSI broth microdilution. Type of series: cell-based. To be noted: 35° C., 18-24 hours, lysed horse blood; for MIC: Streptococcus pneumoniae, 157ESTREP. Here is the method: as §1
The subject of the next series is E. coli ATCC 25922. Nature of the series: Antibacterial MIC, CLSI broth microdilution. The class given is cell-based. Particulars: 35° C., 18-24 hours; for MIC: Escherichia coli, ATCC25922. Here is the method:
as §1

The subject of series [4] is S. aureus RN450. Nature of the series: Antibacterial MIC, CLSI broth microdilution. The class given is cell-based. To be noted: 35° C., 18-24 hours; for MIC: Staphylococcus aureus, RN450. Here is the method:
as §1

The next series has as its system P. acnes ATCC 11827. Description: Antibacterial MIC, CLSI broth microdilution. To be noted: 35° C., 18-24 hours; for MIC: Cutibacterium acnes, ATCC11827. Type of series: cell-based. Here is the method: as §1
The next series has as its system E. coli MG 1655. Nature of the series: Antibacterial MIC, CLSI broth microdilution. Type of series: cell-based. Particulars: 35° C., 18-24 hours; for MIC: Escherichia coli, MG1655. Here is the method: as §1
Setting [5] is: ATCC29741, 35° C., 18-24 hours, read-out: MIC B. thetaiotaomicron ATCC 29741.

As usually defined, the IC50 is the concentration at which inhibition is half-maximal. What is called MIC is the smallest concentration in the dilution series that meets the test's criterion for growth inhibition. `CCONCc1ccc(O)c2c1C[C@H]1C[C@H]3[C@H](N(C)C)C(O)=C(C(N)=O)C(=O)[C@@]3(O)C(O)=C1C2=O` [AA, (4S,4aS,5aR,12aS)-4-Dimethylamino-7-(ethoxyamino-methyl)-3,10,12,12a-tetrahydroxy-1,11-dioxo-1,4,4a,5,5a,6,11,12a-octahydro-naphthacene-2-carboxylic acid amide]: the responders at 5 mg/kg with S. aureus RN450 [1] (Staphylococcus aureus, sc, lethal IP S. aureus RN450, single subcutaneous dose 5 mg/kg, read-out: Percent Survival) was found to be 100%. The IC50 at 24 h in the series “in vitro” (African green monkey) and in the series “in vitro” (Chinese hamster) was above 75 mg/L throughout. The MIC with P. acnes ATCC 6919 was below 4 mg/L; in [2] (setting [5]) it was 4 to 8 mg/L (≈ 8.2 to 16.4 µM); in [3], below 4 mg/L; with E. coli ATCC 25922, 4 to 8 mg/L (≈ 8.2 to 16.4 µM); against S. aureus RN450 [4] it was below 4 mg/L; with P. acnes ATCC 11827 it was below 4 mg/L. In the series on E. coli MG 1655, this molecule showed an MIC of 4 to 8 mg/L (≈ 8.2 to 16.4 µM).

`CNc1c(-c2ccc(O)c3c2C[C@H]2C[C@H]4[C@H](N(C)C)C(O)=C(C(N)=O)C(=O)[C@@]4(O)C(O)=C2C3=O)c(=O)c1=O` [AD, (4S,4aS,5aR,12aS)-4-Dimethylamino-3,10,12,12a-tetrahydroxy-7-(2-methylamino-3,4-dioxo-cyclobut-1-enyl)-1,11-dioxo-1,4,4a,5,5a,6,11,12a-octahydro-naphthacene-2-carboxylic acid amide]: in the series with S. aureus RN450 [1] (Staphylococcus aureus, sc, lethal IP S. aureus RN450, subcutaneous, read-out: PD50 (dose that protects 50% of the animals)), the ED50 is 4.54 mg/kg. Moreover, the IC50 at 24 h in “in vitro” (African green monkey) and in the series “in vitro” (Chinese hamster) was below 35 mg/L each time. For the same molecule, the MIC against P. acnes ATCC 6919 was below 4 mg/L; in series [2] (setting [5]) it was above 8 mg/L; in [3], below 4 mg/L; against E. coli ATCC 25922 it was 4 to 8 mg/L (≈ 7.64 to 15.3 µM); against S. aureus RN450 [4] it was below 4 mg/L; in the series with P. acnes ATCC 11827, below 4 mg/L. The molecule further registered an MIC against E. coli MG 1655 of 4 to 8 mg/L (≈ 7.64 to 15.3 µM).

Turning to `CON(C)Cc1ccc(O)c2c1C[C@H]1C[C@H]3[C@@H](N(C)C)C(O)=C(C(N)=O)C(=O)[C@@]3(O)C(O)=C1C2=O` [Y], the half-maximal inhibitory concentration (IC50) at 24 h in “in vitro” (African green monkey) and in the series “in vitro” (Chinese hamster) was above 75 mg/L each time. In addition, the MIC against P. acnes ATCC 6919 was below 4 mg/L; in series [2] (ATCC29741, read-out: MIC B. thetaiotaomicron ATCC 29741), above 8 mg/L; in [3], 4 to 8 mg/L (≈ 8.2 to 16.4 µM); in the series with E. coli ATCC 25922, above 8 mg/L; in the series with S. aureus RN450 [4], below 4 mg/L; in the series on P. acnes ATCC 11827, below 4 mg/L. Moreover, the MIC in the series with E. coli MG 1655 is above 8 mg/L.

In the case of `CCNN(CC)Cc1ccc(O)c2c1C[C@H]1C[C@H]3[C@H](N(C)C)C(O)=C(C(N)=O)C(=O)[C@@]3(O)C(O)=C1C2=O` [Z, (4S,4aS,5aR,12aS)-7-(N,N″-Diethyl-hydrazinomethyl)-4-dimethylamino-3,10,12,12a-tetrahydroxy-1,11-dioxo-1,4,4a,5,5a,6,11,12a-octahydro-naphthacene-2-carboxylic acid amide], the IC50 at 24 h in “in vitro” (African green monkey) and in “in vitro” (Chinese hamster) was above 75 mg/L throughout. Besides, the MIC with P. acnes ATCC 6919 is below 4 mg/L; in series [2] (setting [5]) it was above 8 mg/L; in series [3], below 4 mg/L; against E. coli ATCC 25922 it was 4 to 8 mg/L (≈ 7.77 to 15.5 µM); against S. aureus RN450 [4], below 4 mg/L; with P. acnes ATCC 11827, below 4 mg/L. In the series on E. coli MG 1655, this molecule came in with a minimal inhibitory concentration (MIC) of 4 to 8 mg/L (≈ 7.77 to 15.5 µM).

With “(4S,4aS,5aR,12aS)-4-Dimethylamino-3,12,12a-trihydroxy-1,11-dioxo-7-pyrazin-2-yl-1,4,4a,5,5a,6,11,12a-octahydro-naphthacene-2-carboxylic acid amide [W]”, the “PD50 (dose that protects 50% of the animals)” value in the series with S. aureus RN450 [1] (lethal IP S. aureus RN450, subcutaneous) is 1.08 mg/kg. The “MIC P. acnes ATCC 6919” value with P. acnes ATCC 6919 is “*** (Good antibacterial activity (e.g., less than about 4 μg/mL))”. Moreover, the “MIC B. thetaiotaomicron ATCC 29741” value in series [2] (35° C., 18-24 hours) is “* (weak or no antibacterial activity (greater than about 8 μg/mL))”. Moreover, in series [3], the “MIC S. pneumoniae 157E - Strep” value is “*** (Good antibacterial activity (e.g., less than about 4 μg/mL))”. Further, the “MIC E. coli ATCC 25922” value in the series on E. coli ATCC 25922 is “* (weak or no antibacterial activity (greater than about 8 μg/mL))”. Besides, the “MIC S. aureus RN450” value in the series on S. aureus RN450 [4] was “*** (Good antibacterial activity (e.g., less than about 4 μg/mL))”. Besides, the “MIC P. acnes ATCC 11827” value in the series on P. acnes ATCC 11827 is reported as “*** (Good antibacterial activity (e.g., less than about 4 μg/mL))”. Further, the “MIC E. coli MG 1655” value against E. coli MG 1655 is recorded as “* (weak or no antibacterial activity (greater than about 8 μg/mL))”.
